Measured values published in patent US20240318145A1, “STRUCTURALLY COMPLETE ORGANOIDS” (Children's Hospital Medical Center, priority 2021, published 2024).
“Also recorded” adds a separate entry of the source.

How the values were obtained:
Type in all cases: cell-based, human
[1] = test system: muscarinic receptor; test: Ex vivo isometric force contraction of muscle strips from transplanted hAGO +SM +ENS in an organ bath
[2] = test system: ENS
[3] = test system: hAGOs +ENCCs; test: Brunner's gland epithelium in grafts of hAGOs recombined with ENCCs and transplanted into mice; conditions: ENCCs recombined at day 6, Noggin day 6-9 (3 days) along with RA; compared with 5 out of 21 grafts not treated
Description: (§1) One candidate pathway was BMP signaling, which is known to promote posterior fate in the gastrointestinal junction. Analysis of ENCCs show high levels of expression of both BMP4 and BMP7 (FIG. 15A). To functionally investigate if BMP activity might mediate the ability of ENCCs to promote a Brunner's gland fate, ENCCs were recombined with hAGO at day 6 and then organoids were cultured with the BMP inhibitor Noggin (NOG) from day 6-9, along with RA, which is a component of the normal hAGO protocol. None of the grafts (0 out of 27) had Brunner's gland epithelium following 3 days of Noggin treatment as compared to hAGOs +ENCCs added at day 9 not treated with NOG (5 out of 21 grafts). […]
Recombination and additional spheroid patterning: Single cell suspensions of mesenchymal cells and ENCCs were counted and added to foregut spheroids at an approximate ratio of 1,000 ENCCs and 2,500 mesenchyme cells per spheroid. […]
In vivo transplantation of hAGOs and hFGOs: hAGO, hFGO, hAGO +ENS, hAGO +SM +ENS, hAGO +SM +ENS, and hFGO +SM +ENS were all ectopically transplanted into the kidney capsule of NSG mice. […] Engrafted organoids were harvested 6-15 weeks after transplantation and analyzed for neuroglial, epithelial, and mesenchymal maturation.

[4] = test system: ENCCs; test: Expression of BMP ligands in ENCC culture (qRT-PCR); conditions: ENCC culture treated with NOG; FIG. 15B
Description: as §1
RNA isolation and quantitative real-time PCR (qRT-PCR): Spheroids and organoids were harvested in RAI Lysis Buffer and β-mercapethanol and stored at −80° C. until total RNA was isolated using NucleoSpin RNA Isolation Kit (Macherey-Nagel) according to manufacturers' instructions. Complementary DNA (cDNA) was reverse transcribed from 116 ng of RNA using a SuperScript VILO cDNA Synthesis Kit (Invitrogen). qRT-PCR was performed using a QuantiTect SYBR Green PCR Kit (Qiagen) in MicroAmp EnduraPlate Optical 96-Well Fast Reaction Plates (Applied Biosystems) and run on a QuantStudio 6 Real-Time PCR Detection System (Applied Biosystems). […]

CC(C[N+](C)(C)C)OC(N)=O (stereo not drawn) [bethanechol, Carbamyl-β-methylcholine chloride]
contractility (smooth muscle force contraction), dose response ([1]; 1 nM to 10 mM at 2 min intervals, tissue strips of transplanted hAGO +SM +ENS, FIG. 4C): increased in response to bethanechol in a dose-dependent manner | normalized mean maximal tension ([1]; bethanechol dose response before scopolamine, normalized to muscle strip mass, n=3, FIG. 4D): 236.9 g/g

CN1[C@@H]2C[C@@H](OC(=O)[C@H](CO)c3ccccc3)C[C@H]1[C@@H]1O[C@@H]12 [scopolamine]
reversal of contractions / muscle relaxation [1]: contractions were able to be reversed and muscle relaxation induced

NC1=N[C@H](O)[C@H]2[C@H]3O[C@]4(O)O[C@@H]([C@@H](O)[C@@]2(N1)[C@@H]4O)[C@]3(O)CO [tetrodotoxin]
EFS-stimulated contractile activity (change in AUC) [2]: abolished the ability of EFS to stimulate contractile activity; also recorded: abrogating EFS-mediated contractions

B1: Noggin: BMP inhibitor Noggin (NOG) (protein, UniProt Q13253 28-232, looked up)
Noggin: QHYLHIRPAPSDNLPLVDLIEHPDPIFDPKEKDLNETLLRSLLGGHYDPGFMATSPPEDRPGGGGGAAGGAEDLAELDQLLRQRPSGAMPSEIKGLEFSEGLAQGKKQRLSKKLRRKLQMWLWSQTFCPVLYAWNDLGSRFWPRYVKVGSCFSKRSCSVPEGMVCKPSKSVHLTVLRWRCQRRGGQRCGWIPIQYPIISECKCSC
grafts with Brunner's gland epithelium [3]: 0 out of 27 | levels of BMP4 and BMP7 expression [4]: significantly reduced levels of both BMP4 and 7
